# From patent US20240139236A1, “COPPER HISTIDINATE COMPOSITIONS AND USES THEREOF” (Cyprium Therapeutics, Inc., priority 2021, published 2024)
# How the values were obtained:
# [1] = system: classic Menkes disease patients; experiment: Subcutaneous copper histidinate treatment of Menkes patients (serum copper, renal safety monitoring); format: in vivo, human; settings: 1450 μg SC BID younger than 12 months, QD older than 12 months
# Text: The purpose of this study was to allow currently enrolled participants to complete a three-year course of subcutaneous copper histidinate treatment under a previous protocol. It was hypothesized that subcutaneous injections of this drug will raise serum copper levels and ceruloplasmin levels in enrolled participants, improve neurodevelopmental and neurological outcomes, and reduce mortality compared to untreated affected subjects. The broad overall hypothesis of this treatment study is that subcutaneous copper histidinate injections will normalize circulating copper levels and provide health benefits to individuals with copper deficiency due to genetic abnormalities such as classic Menkes disease or which is unexplained. The trial represents an open-label design in which all enrolled subjects receive subcutaneous injections of copper histidinate. Immediate potential benefits of Copper Histidinate treatment in classic Menkes disease include protection against seizure activity and accrual of neurodevelopmental skills in an age-appropriate fashion. Long-term potential benefits include enhanced lifespan and quality of life, as noted in other subjects with classic Menkes disease treated with Copper Histidinate. […]
# Menkes disease subjects = experiment: Long term follow up of Menkes disease patients treated with copper histidinate (survival); format: in vivo, human; settings: early treatment vs untreated historical controls
# Description: During the study patients were administered does of copper histidinate as follows: 1450 μg subcutaneous BID in infants up to 12 months of age, and 1450 μg subcutaneous QD for infants and children older than 12 months.
# This study was designed as a long term follow up on patients previously identified and/or enrolled in previous studies for the treatment of Menkes disease with copper histidinate and untreated patients to determine survival, neurological development, quality of life status and adverse events. This study followed the patients from the previous examples for long term follow up.
# Patients previously enrolled in clinical trials for the treatment of Menkes disease with copper histidinate were assessed for survival status, neurological development status and quality of life. No drug was be administered during this study.
# [2] = system: classic Menkes disease patients; settings: cited from earlier work
smiles,measurement,setting,value
"N[C@@H](Cc1cnc[nH]1)C(=O)[O-].N[C@@H](Cc1cnc[nH]1)C(=O)[O-].[Cu+2] [copper histidinate, (2S)-2-amino-3-(1H-imidazol-5-yl) propanoic acid, Copper]",serum copper levels under the standard dosing regimen,[1],maintains serum copper levels in the normal range
same,reduction in the risk of death,Menkes disease subjects,~80%
same,hazard ratio (risk of death),Menkes disease subjects; p<0.00001,0.21
same,renal tubular injury caused by copper histidinate,[2],reversible
